Target: T1, EphB4 (Homo sapiens, UniProt P54760)
T1 construct: to generate full-length EphB4 containing a Myc-His tag at the C-terminus; expressed in transfected cells; EphB4-CHO)
T1 sequence (P54760 16-987): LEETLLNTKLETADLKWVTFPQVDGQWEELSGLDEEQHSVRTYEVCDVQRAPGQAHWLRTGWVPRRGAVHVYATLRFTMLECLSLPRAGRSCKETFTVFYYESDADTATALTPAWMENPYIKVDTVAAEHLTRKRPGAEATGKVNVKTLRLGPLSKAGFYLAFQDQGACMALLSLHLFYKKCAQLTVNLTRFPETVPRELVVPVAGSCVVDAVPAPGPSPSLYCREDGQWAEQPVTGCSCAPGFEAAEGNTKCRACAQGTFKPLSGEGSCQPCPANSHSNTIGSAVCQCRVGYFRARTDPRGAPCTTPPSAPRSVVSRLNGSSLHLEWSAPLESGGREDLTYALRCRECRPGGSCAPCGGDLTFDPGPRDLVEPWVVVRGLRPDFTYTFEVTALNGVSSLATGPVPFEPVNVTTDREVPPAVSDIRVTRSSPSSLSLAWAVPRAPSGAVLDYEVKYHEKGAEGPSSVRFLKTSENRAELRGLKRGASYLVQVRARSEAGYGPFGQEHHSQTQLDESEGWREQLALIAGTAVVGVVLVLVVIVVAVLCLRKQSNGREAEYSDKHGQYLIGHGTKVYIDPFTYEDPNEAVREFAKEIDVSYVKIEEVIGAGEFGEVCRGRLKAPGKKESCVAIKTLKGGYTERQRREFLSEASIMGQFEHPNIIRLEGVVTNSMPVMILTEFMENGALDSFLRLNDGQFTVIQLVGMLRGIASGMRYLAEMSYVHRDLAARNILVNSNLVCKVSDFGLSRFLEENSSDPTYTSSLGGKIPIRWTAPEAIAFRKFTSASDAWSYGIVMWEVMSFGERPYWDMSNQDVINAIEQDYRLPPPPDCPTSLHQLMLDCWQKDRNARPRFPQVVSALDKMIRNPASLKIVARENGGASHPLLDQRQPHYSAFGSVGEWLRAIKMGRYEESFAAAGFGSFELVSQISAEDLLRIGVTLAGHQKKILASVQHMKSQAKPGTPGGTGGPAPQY
Experiment: In vitro EphB4 cell assay (EphB4 phosphorylation in EphB4-CHO cells, sandwich ELISA)
Assay type: cell-based
Conditions: stimulated with clustered ephrin-B2, read-out: IC50 in assay B
Description: B) In vitro EphB4 Cell Assay
The assay identifies inhibitors of cellular EphB4 by measuring a decrease in phosphorylation of EphB4 following treatment of cells with compound. The endpoint assay used a sandwich ELISA to detect EphB4 phosphorylation status. Briefly, Myc-tagged EphB4 from treated cell lysate was captured on the ELISA plate via an anti-c-Myc antibody. The phosphorylation status of captured EphB4 was then measured using a generic phosphotyrosine antibody conjugated to HRP via a colourimetric output catalysed by HRP, with level of EphB4 phosphorylation directly proportional to the colour intensity. Absorbance was measured spectrophotometrically at 450 nm.
Full length human EphB4 (Swiss-Prot Acc. No. P54760) was cloned using standard techniques from cDNA prepared from HUVEC using RT-PCR. The cDNA fragment was then sub-cloned into a pcDNA3.1 expression vector containing a Myc-His epitope tag to generate full-length EphB4 containing a Myc-His tag at the C-terminus (Invitrogen Ltd. Paisley, UK). CHO-K^1 cells (LGC Promochem, Teddington, Middlesex, UK, Catalogue No. CCL-61) were maintained in HAM's F12 medium (Sigma-Aldrich Company Ltd, Gillingham, Dorset SP8 4XT, Catalogue No. N4888) containing 10% heat-inactivated foetal calf serum (PAA lab GmbH, Pasching, Austria Catalogue No. PAA-A15-043) and 1% glutamax-1 (Invitrogen Ltd., Catalogue No. 35050-038) at 37° C. with 5% CO2. […]

`c1cc(Nc2ccnc(Nc3cc(N4CCOCC4)nc(N4CCOCC4)c3)n2)c2cn[nH]c2c1` [Example 3, N2-(2,6-dimorpholinopyridin-4-yl)-N4-(1H-indazol-4-yl)pyrimidine-2,4-diamine] showed an IC50 of 26 nM.

Reference: patent US7718653B2, “Pyrimidine derivatives for inhibiting Eph receptors” (AstraZeneca AB, priority 2007, dated 2010)
